Patent US11559559B2, “Angiotensin II alone or in combination for the treatment of hypotension” (The George Washington University a Congressionally …, priority 2013, dated 2023)

Test system: patients with high output shock
Settings: in vivo
Experimental: The investigators, clinical support staff, the patients and their families were unaware of the treatment assignment for the duration of the study.
Enrolled patients were randomized to receive the Study Drug infusion in normal saline calculated to run at a drip rate corresponding to an initial concentration of 20 ng/kg/min, plus the standard-of-care treatment for high output shock. The Study Drug was prepared in an opaque cellophane bag, the contents of which were unknown to the investigators, nurses or anyone else taking direct care of the patient. The Study Drug was administered for a total of 6 hours, with dose (and corresponding drip rate) adjustments made hourly. Study Drug dose adjustments were determined per a pre-specified protocol, based on the concomitant requirements of standard-of-care therapy (in all cases, norepinephrine infusion plus vasopressin, epinephrine and/or phenylephrine infusions) needed to maintain a mean arterial pressure (MAP) at or above 65 mm Hg, which is the standard practice at our institution. […] At the end of 6 hours, the Study Drug infusion was titrated off by being halved every 10 minutes until the Study Drug infusion dose was below 5 ng/kg/min, after which it was discontinued.
A small cohort of patients was analyzed, consistent with similar studies of this nature. […] An independent data and safety monitor (DSM) was assigned and reviewed all adverse events.

- hypertension, patients receiving ATII in whom it occurred: 20%
Compound: CC[C@H](C)[C@H](NC(=O)[C@H](Cc1ccc(O)cc1)NC(=O)[C@@H](NC(=O)[C@H](CCCNC(=N)N)NC(=O)[C@@H](N)CC(=O)O)C(C)C)C(=O)N[C@@H](Cc1cnc[nH]1)C(=O)N1CCC[C@H]1C(=O)N[C@@H](Cc1ccccc1)C(=O)O [ATII, angiotensin II]
- Adverse events: Acidosis: 2
- Adverse events: Atrial Fibrillation: 2
- Adverse events: Blood or lymphatic disorders: 3
- Adverse events: Cardiac disorders: 7
- Adverse events: Decreased urine output: 3
- Adverse events: Hypertension: 2
- Adverse events: Hypotension: 2
- Adverse events: Metabolic disorders: 11
- Adverse events: Other disorders: 5
- Adverse events: Renal disorders: 6
- Adverse events: Respiratory disorders: 3
- Adverse events: Wheezing: 1
- Adverse events: Worsening AKI: 0
- Adverse events: Worsening MOSF: 2
- Adverse events: Worsening respiratory failure: 1
- patients in whom ATII infusion was discontinued due to hypertension: ^⋄ATII infusion was discontinued in two patients due to hypertension.
- tolerability: well-tolerated
